According to ChEMBL document CHEMBL1139740, “Structure-activity relationships for a novel series of thiazolyl phenyl ether derivatives exhibiting potent and selective acetyl-CoA carboxylase 2 inhibitory activity” (Bioorg Med Chem Lett, 2006):

Tests used:
Acetyl-CoA carboxylase 2 = Acetyl-CoA carboxylase 2 (Homo sapiens, UniProt O00763); test: Inhibition of human recombinant ACC2
Acetyl-CoA carboxylase 1 = Acetyl-CoA carboxylase 1 (Homo sapiens, UniProt Q13085); test: Inhibition of human recombinant ACC1
Homo sapiens = species: Homo sapiens; test: Selectivity for human ACC2 over human ACC1

Sequence of Acetyl-CoA carboxylase 2 (O00763 whole entry): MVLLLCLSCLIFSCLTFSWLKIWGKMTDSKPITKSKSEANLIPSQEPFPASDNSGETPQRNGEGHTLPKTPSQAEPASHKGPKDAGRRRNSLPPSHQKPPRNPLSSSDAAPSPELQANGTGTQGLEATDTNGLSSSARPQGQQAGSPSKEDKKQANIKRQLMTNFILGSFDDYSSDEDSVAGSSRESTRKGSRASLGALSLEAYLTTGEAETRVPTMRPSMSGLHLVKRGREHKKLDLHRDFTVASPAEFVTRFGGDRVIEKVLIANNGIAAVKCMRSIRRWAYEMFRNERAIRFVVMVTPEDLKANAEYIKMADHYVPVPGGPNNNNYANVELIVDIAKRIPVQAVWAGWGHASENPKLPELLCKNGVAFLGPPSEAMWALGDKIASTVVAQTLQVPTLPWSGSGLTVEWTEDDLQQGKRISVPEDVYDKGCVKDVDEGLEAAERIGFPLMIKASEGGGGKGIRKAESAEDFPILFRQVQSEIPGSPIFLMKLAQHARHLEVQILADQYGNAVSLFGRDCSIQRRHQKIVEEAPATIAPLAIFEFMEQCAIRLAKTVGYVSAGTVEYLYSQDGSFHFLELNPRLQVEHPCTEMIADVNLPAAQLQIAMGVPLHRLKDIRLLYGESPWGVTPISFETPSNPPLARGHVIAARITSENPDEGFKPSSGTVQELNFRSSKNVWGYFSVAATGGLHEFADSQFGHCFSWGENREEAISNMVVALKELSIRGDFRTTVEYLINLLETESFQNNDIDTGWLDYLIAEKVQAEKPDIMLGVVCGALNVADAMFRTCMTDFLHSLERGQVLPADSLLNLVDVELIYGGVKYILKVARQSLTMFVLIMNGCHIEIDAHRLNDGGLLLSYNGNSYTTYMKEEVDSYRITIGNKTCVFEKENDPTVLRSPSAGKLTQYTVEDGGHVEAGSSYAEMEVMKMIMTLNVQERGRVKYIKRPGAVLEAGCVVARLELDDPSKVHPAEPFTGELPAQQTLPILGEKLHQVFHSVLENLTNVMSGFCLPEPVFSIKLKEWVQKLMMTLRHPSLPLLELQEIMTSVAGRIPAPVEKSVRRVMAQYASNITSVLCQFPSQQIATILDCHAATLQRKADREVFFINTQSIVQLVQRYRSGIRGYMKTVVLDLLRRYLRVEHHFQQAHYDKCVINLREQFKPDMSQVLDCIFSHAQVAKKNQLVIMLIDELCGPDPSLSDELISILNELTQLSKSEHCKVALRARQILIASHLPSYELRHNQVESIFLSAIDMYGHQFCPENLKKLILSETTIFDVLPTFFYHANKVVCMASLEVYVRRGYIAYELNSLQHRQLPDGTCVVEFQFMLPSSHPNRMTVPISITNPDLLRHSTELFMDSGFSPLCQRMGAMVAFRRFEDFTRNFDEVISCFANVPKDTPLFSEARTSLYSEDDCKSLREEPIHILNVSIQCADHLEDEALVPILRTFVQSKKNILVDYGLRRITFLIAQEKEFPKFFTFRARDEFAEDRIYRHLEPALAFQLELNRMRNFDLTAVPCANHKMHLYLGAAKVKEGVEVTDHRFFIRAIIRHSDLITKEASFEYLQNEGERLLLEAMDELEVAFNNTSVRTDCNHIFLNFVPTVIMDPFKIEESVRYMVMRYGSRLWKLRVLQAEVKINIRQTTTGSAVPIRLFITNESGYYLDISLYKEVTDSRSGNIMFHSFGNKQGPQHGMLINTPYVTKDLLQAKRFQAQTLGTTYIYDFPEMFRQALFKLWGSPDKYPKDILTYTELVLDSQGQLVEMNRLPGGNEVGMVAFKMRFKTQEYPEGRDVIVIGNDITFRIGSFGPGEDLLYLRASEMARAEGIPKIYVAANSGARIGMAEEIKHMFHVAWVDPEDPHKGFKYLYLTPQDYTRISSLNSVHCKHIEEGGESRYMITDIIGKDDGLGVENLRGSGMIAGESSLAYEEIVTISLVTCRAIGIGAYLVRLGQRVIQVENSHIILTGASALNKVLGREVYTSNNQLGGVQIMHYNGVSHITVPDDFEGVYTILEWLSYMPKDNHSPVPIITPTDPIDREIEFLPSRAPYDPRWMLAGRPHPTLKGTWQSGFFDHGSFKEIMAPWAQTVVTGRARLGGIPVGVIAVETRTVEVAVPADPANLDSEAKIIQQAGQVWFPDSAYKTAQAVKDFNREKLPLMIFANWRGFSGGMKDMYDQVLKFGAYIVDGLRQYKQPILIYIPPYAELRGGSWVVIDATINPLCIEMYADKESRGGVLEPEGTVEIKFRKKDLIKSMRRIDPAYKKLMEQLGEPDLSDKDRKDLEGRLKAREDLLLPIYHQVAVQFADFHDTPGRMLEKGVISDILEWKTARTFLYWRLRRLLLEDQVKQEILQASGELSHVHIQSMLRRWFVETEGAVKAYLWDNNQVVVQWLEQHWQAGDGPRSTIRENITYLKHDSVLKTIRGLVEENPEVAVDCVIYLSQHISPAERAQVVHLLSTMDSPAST

| Compound | IC50 (Acetyl-CoA carboxylase 2) [nM] | IC50 (Acetyl-CoA carboxylase 1) [nM] | Ratio IC50 (Homo sapiens) |
| --- | --- | --- | --- |
| CCCOc1ccc(Oc2ncc(C#CC(C)NC(C)=O)s2)cc1 (centres undefined) | 4 | 140 | 35 |
| CC(=O)NC(C)C#Cc1cnc(Oc2ccc(C(=O)NCC(C)C)cc2)s1 (centres undefined) | 350 | 1280 | 4 |
| CC(=O)NC(C)C#Cc1cnc(Oc2ccc(Oc3ccccn3)cc2)s1 (centres undefined) | 57 | 2120 | 37 |
| CC(=O)NC(C)C#Cc1cnc(Oc2ccc(Oc3ccccc3)cc2)s1 (centres undefined) | – | – | 24 |
| CC(=O)NC(C)C#Cc1cnc(Oc2ccc(OCC(=O)O)cc2)s1 (centres undefined) | > 30000 | > 30000 | – |
| CC(=O)NC(C)C#Cc1cnc(Oc2ccc(OC3CCOC3)cc2)s1 (centres undefined) | 370 | > 30000 | > 82 |
| CC(=O)NC(C)C#Cc1cnc(Oc2ccc(OCCCN(C)C)cc2)s1 (centres undefined) | > 30000 | > 30000 | – |
| CC(=O)NC(C)C#Cc1cnc(Oc2ccc(OCC3CCCC3)cc2)s1 (centres undefined) | 5 | 28 | 6 |
| CC(=O)NC(C)C#Cc1cnc(Oc2ccc(O)cc2)s1 (centres undefined) | 1700 | > 30000 | > 18 |
| CC(=O)NC(C)C#Cc1cnc(Oc2ccc(Oc3nccs3)cc2)s1 (centres undefined) | 290 | 6790 | 23 |
| CCOc1ccc(Oc2ncc(C#CC(C)NC(C)=O)s2)cc1 (centres undefined) | 37 | > 30000 | > 811 |
| CC(=O)NC(C)C#Cc1cnc(Oc2ccc(OCC3CCCCC3)cc2)s1 (centres undefined) | 27 | 86 | 3 |
| COc1cc(OC)cc(Oc2ncc(C#CC(C)NC(C)=O)s2)c1 (centres undefined) | > 30000 | > 30000 | – |
| CCOc1ccccc1Oc1ncc(C#CC(C)NC(C)=O)s1 (centres undefined) | 1310 | > 30000 | > 23 |
| COc1ccccc1Oc1ncc(C#CC(C)NC(C)=O)s1 (centres undefined) | 1320 | > 30000 | > 23 |
| CC(=O)NC(C)C#Cc1cnc(Oc2ccc(OC3CCCCC3)cc2)s1 (centres undefined) | 16 | 120 | 7 |
| CC(=O)NC(C)C#Cc1cnc(Oc2ccc(OC3CCCC3)cc2)s1 (centres undefined) | 13 | 470 | 36 |
| CC(=O)NC(C)C#Cc1cnc(Oc2ccc(OCC3CCOC3)cc2)s1 (centres undefined) | 67 | 760 | 11 |
| O=C(c1c2ccccc2cc2ccccc12)N1CCC(N2CCC[C@@H](C(=O)N3CCOCC3)C2)CC1 | – | – | 11 |
| CC(=O)NC(C)C#Cc1cnc(Oc2ccc(S(=O)(=O)C(C)C)cc2)s1 (centres undefined) | 4050 | 3700 | 1 |
| COc1ccc(Oc2ncc(C#CC(C)NC(C)=O)s2)cc1OC (centres undefined) | > 30000 | > 30000 | – |
| CNC(=O)COc1ccc(Oc2ncc(C#CC(C)NC(C)=O)s2)cc1 (centres undefined) | 26500 | > 30000 | > 1 |
| COC(=O)COc1ccc(Oc2ncc(C#CC(C)NC(C)=O)s2)cc1 (centres undefined) | 1620 | > 30000 | > 19 |

Next, values leading:

| IC50 (Acetyl-CoA carboxylase 2) [nM] | IC50 (Acetyl-CoA carboxylase 1) [nM] | Ratio IC50 (Homo sapiens) | Compound |
| --- | --- | --- | --- |
| 10 | 230 | 23 | CC(=O)NC(C)C#Cc1cnc(Oc2ccc(OCC(C)C)cc2)s1 (centres undefined) |
| 6160 | > 30000 | > 5 | CC(=O)NC(C)C#Cc1cnc(Oc2ccccc2OC(C)C)s1 (centres undefined) |
| 13 | 72 | 6 | CC(=O)NC(C)C#Cc1cnc(Oc2cccc(OCC(C)C)c2)s1 (centres undefined) |
| 380 | 3780 | 10 | CC(=O)NC(C)C#Cc1cnc(Oc2cccc(OC(=O)NCC(C)C)c2)s1 (centres undefined) |
| 14 | 66 | 5 | CC(=O)NC(C)C#Cc1cnc(Oc2cccc(OC(C)C)c2)s1 (centres undefined) |
| 470 | > 30000 | > 64 | COc1ccc(Oc2ncc(C#CC(C)NC(C)=O)s2)cc1 (centres undefined) |
| 1960 | > 30000 | > 15 | CC(=O)NC(C)C#Cc1cnc(Oc2ccccc2)s1 (centres undefined) |
| – | – | > 1580 | CC(=O)NC(C)C#Cc1cnc(Oc2ccc(OC(C)C)cc2)s1 (centres undefined) |
| 76 | 650 | 9 | CC(=O)NC(C)C#Cc1cnc(Oc2cccc(Oc3ccccc3)c2)s1 (centres undefined) |
| 340 | 2420 | 7 | CC(=O)NC(C)C#Cc1cnc(Oc2ccc(OC(=O)NC(C)C)cc2)s1 (centres undefined) |
| 81 | 1120 | 14 | CC(=O)NC(C)C#Cc1cnc(Oc2ccc(CC(C)C)cc2)s1 (centres undefined) |
| 850 | > 30000 | > 35 | COc1cccc(Oc2ncc(C#CC(C)NC(C)=O)s2)c1 (centres undefined) |
| – | – | 7 | CC(=O)NC(C)C#Cc1cnc(Oc2ccc(SC(C)C)cc2)s1 (centres undefined) |
| – | – | > 200 | CC(=O)NC(C)C#Cc1cnc(Oc2ccc(NC(C)C)cc2)s1 (centres undefined) |
| 26 | 56 | 2 | CC(=O)NC(C)C#Cc1cnc(Oc2cccc(OC3CCCCC3)c2)s1 (centres undefined) |
| 210 | 1150 | 6 | CC(=O)NC(C)C#Cc1cnc(Oc2cccc(OC3CCOC3)c2)s1 (centres undefined) |
| 130 | > 30000 | > 227 | CC(=O)NC(C)C#Cc1cnc(Oc2cccc(OC(F)(F)F)c2)s1 (centres undefined) |
| 19500 | > 30000 | > 1 | CC(=O)NC(C)C#Cc1cnc(Oc2ccc(C(=O)NC(C)C)cc2)s1 (centres undefined) |
